# Measured values as given in patent US11377425B1, “Small molecule modulators of IL-17” (LEO Pharma A/S, priority 2018, dated 2022).
# Biological target: T1, human IL-17AA (Homo sapiens, UniProt Q16552)
# T1 construct: host or cells: HEK (human embryonic kidney) cells
# T1 sequence (Q16552 24-155): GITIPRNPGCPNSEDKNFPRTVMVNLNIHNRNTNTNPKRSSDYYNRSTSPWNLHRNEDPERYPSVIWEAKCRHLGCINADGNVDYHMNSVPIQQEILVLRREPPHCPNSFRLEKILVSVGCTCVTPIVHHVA
# Assay: IL-8 release assay in human epithelial keratinocytes adult (HEKa)
# Assay type: cell-based
# Conditions: HEKa cells, 3 ng/mL HEK-human IL-17AA + 10 ng/mL human TNFalpha; read-out: Rel EC50 IL-8 release assay
# How it was run: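 IL-8 release, quantified by HTRF and normalized to controls, reports IL-17 signaling in HEKa cells treated with compound plus final 3 ng/mL IL-17AA (HEK-derived) and 10 ng/mL TNF-alpha for 68-72 h; TNF-alpha-only wells set 100% inhibition. Four-parameter logistic fits (r^2>0.9) give relative IC50 and Emax; PrestoBlue flags cytotoxicity.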
row,Structure (SMILES),EC50
1,"Cn1cncc1-c1ccc(NC(=O)[C@@H](NC(=O)c2ccnn2C)C(C2CCCCC2)C2CCCC2)cc1 (single isomer, unassigned) [Example 339A]",0.1 to 1 µM
2,"Cc1n[nH]c(C)c1-c1ccc(NC(=O)C(NC(=O)c2ccnn2C(C)C)C2CCC3(CC2)CC3)cc1 (racemic) [Example 20, N-[2-[4-(3,5-dimethyl-1H-pyrazol-4-yl)anilino]-2-oxo-1-spiro[2.5]octan-6-yl-ethyl]-2-isopropyl-pyrazole-3-carboxamide]",0.1 to 1 µM
3,"CCC(c1ccccc1)C(NC(=O)c1ccnn1C)C(=O)Nc1ccc(-c2c(C)n[nH]c2C)cc1 (single isomer, unassigned) [Example 228]",0.1 to 1 µM
4,"Cc1[nH]nc(CO)c1-c1ccc(NC(=O)[C@@H](NC(=O)OC(C)(C)C)C2CCCCC2)cc1 [Example 438, tert-butyl N-[(1S)-1-cyclohexyl-2-[4-[5-(hydroxymethyl)-3-methyl-1H-pyrazol-4-yl]anilino]-2-oxo-ethyl]carbamate]",0.1 to 1 µM
5,"Cc1n[nH]c(C)c1-c1ccc(NC(=O)[C@@H](NC(=O)N2CCCC2CO)C2CCCCC2)cc1 (single isomer, unassigned) [Example 473]",> 1 µM
6,"Cc1n[nH]c(C)c1-c1ccc(NC(=O)[C@@H](NC(=O)c2cnn3ccccc23)C2CCCCC2)cc1 [Example 68, N-[(1S)-1-cyclohexyl-2-[4-(3,5-dimethyl-1H-pyrazol-4-yl)anilino]-2-oxo-ethyl]pyrazolo[1,5-a]pyridine-3-carboxamide]",0.1 to 1 µM
7,"Cc1n[nH]c(C)c1-c1ccc(NC(=O)[C@@H](NC(=O)c2ccnn2C)C(C)CC2CC2)cc1 (single isomer, unassigned) [Example 160]",0.1 to 1 µM
8,"Cc1ncn(C)c1-c1ccc(NC(=O)[C@@H](NC(=O)OC(C)(C)C)C2CCCC2)cc1 [Example 87, tert-butyl N-[(1S)-1-cyclopentyl-2-[4-(3,5-dimethylimidazol-4-yl)anilino]-2-oxo-ethyl]carbamate]",> 1 µM
9,"CC(C)n1nccc1C(=O)NC(C(=O)Nc1ccc(-c2c(C3CC3)n[nH]c2C2CC2)cc1)C(C1CC1)C1CC1 (single isomer, unassigned) [Example 385, N-[1-(dicyclopropylmethyl)-2-[4-(3,5-dicyclopropyl-1H-pyrazol-4-yl)anilino]-2-oxo-ethyl]-2-isopropyl-pyrazole-3-carboxamide]",< 0.1 µM
10,"Cc1n[nH]c(C)c1-c1ccc(NC(=O)[C@@H](NC(=O)N(C)CCCO)C2CCCCC2)cc1 [Example 459, (2S)-2-cyclohexyl-N-[4-(3,5-dimethyl-1H-pyrazol-4-yl)phenyl]-2-[[3-hydroxypropyl(methyl)carbamoyl]amino]acetamide]",> 1 µM
11,"CCn1nccc1C(=O)N[C@H](C(=O)Nc1ccc(-c2c(C)n[nH]c2C)cc1)C1CCC2(CC1)CC2 [Example 264, N-[(1S)-2-[4-(3,5-dimethyl-1H-pyrazol-4-yl)anilino]-2-oxo-1-spiro[2.5]octan-6-yl-ethyl]-2-ethyl-pyrazole-3-carboxamide]",0.1 to 1 µM
12,"Cc1n[nH]c(C)c1-c1ccc(NC(=O)[C@@H](NC(=O)c2cnnn2C)C(C2CCC2)C2CCC2)cc1 [Example 272, N-[(1S)-1-[di(cyclobutyl)methyl]-2-[4-(3,5-dimethyl-1H-pyrazol-4-yl)anilino]-2-oxo-ethyl]-3-methyl-triazole-4-carboxamide]",< 0.1 µM
13,"CCn1nccc1C(=O)N[C@H](C(=O)Nc1ccc(-c2c(C)cnn2C)c(O)c1)C(C1CC1)C1CC1 [Example 364, N-[(1S)-1-(dicyclopropylmethyl)-2-[4-(2,4-dimethylpyrazol-3-yl)-3-hydroxy-anilino]-2-oxo-ethyl]-2-ethyl-pyrazole-3-carboxamide]",< 0.1 µM
14,"Cc1n[nH]c(C)c1-c1ccc(NC(=O)[C@@H](NC(=O)N2CCCCC2CCO)C2CCCCC2)cc1 (single isomer, unassigned) [Example 471]",> 1 µM
15,"CC(C)c1n[nH]c(C(C)C)c1-c1ccc(NC(=O)[C@@H](NC(=O)c2ccnn2C(C)C)C(C2CC2)C2CC2)cc1 [Example 387, N-[(1S)-1-(dicyclopropylmethyl)-2-[4-(3,5-diisopropyl-1H-pyrazol-4-yl)anilino]-2-oxo-ethyl]-2-isopropyl-pyrazole-3-carboxamide]",< 0.1 µM
16,"Cc1n[nH]c(C)c1-c1ccc(NC(=O)[C@@H](NC(=O)c2ccnn2C)C(C)C)cc1 [Example 42, N-[(1S)-1-[[4-(3,5-dimethyl-1H-pyrazol-4-yl)phenyl]carbamoyl]-2-methyl-propyl]-2-methyl-pyrazole-3-carboxamide; 2,2,2-trifluoroacetic acid]",> 1 µM
17,"Cc1n[nH]c(N)c1-c1ccc(NC(=O)[C@@H](NC(=O)c2ccnn2C)C2CCCCCC2)cc1 [Example 450, N-[(1S)-2-[4-(5-amino-3-methyl-1H-pyrazol-4-yl)anilino]-1-cycloheptyl-2-oxo-ethyl]-2-methyl-pyrazole-3-carboxamide]",0.1 to 1 µM

row,Structure (SMILES),EC50
1,"Cc1n[nH]c(C)c1-c1ccc(NC(=O)[C@@H](NC(=O)c2ccnn2CCC(F)(F)F)C(C2CC2)C2CC2)cc1 [Example 130, N-[(1S)-1-(dicyclopropylmethyl)-2-[4-(3,5-dimethyl-1H-pyrazol-4-yl)anilino]-2-oxo-ethyl]-2-(3,3,3-trifluoropropyl)pyrazole-3-carboxamide]",< 0.1 µM
2,"Cc1n[nH]c(C)c1-c1ccc(NC(=O)C(NC(=O)c2ccnn2C(C)C)C(C2CCC2)C2CCC2)cc1 (racemic) [Example 38, N-[1-[di(cyclobutyl)methyl]-2-[4-(3,5-dimethyl-1H-pyrazol-4-yl)anilino]-2-oxo-ethyl]-2-isopropyl-pyrazole-3-carboxamide]",< 0.1 µM
3,"Cc1n[nH]c(C)c1-c1ccc(NC(=O)[C@@H](NC(=O)N(C)CCO)C2CCCCC2)cc1 [Example 463, (2S)-2-cyclohexyl-N-[4-(3,5-dimethyl-1H-pyrazol-4-yl)phenyl]-2-[[2-hydroxyethyl(methyl)carbamoyl]amino]acetamide]",> 1 µM
4,"CCn1nccc1C(=O)NC(C(=O)Nc1ccc(-c2c(C)n[nH]c2C)cc1)C1CCCCCCC1 (single isomer, unassigned) [Example 154, N-[1-cyclooctyl-2-[4-(3,5-dimethyl-1H-pyrazol-4-yl)anilino]-2-oxo-ethyl]-2-ethyl-pyrazole-3-carboxamide]",0.1 to 1 µM
5,"Cc1ncc(CC(=O)N[C@H](C(=O)Nc2ccc(-c3c(C)n[nH]c3C)cc2)C2CCCCC2)s1 [Example 52, (2S)-2-cyclohexyl-N-[4-(3,5-dimethyl-1H-pyrazol-4-yl)phenyl]-2-[[2-(2-methylthiazol-5-yl)acetyl]amino]acetamide]",> 1 µM
6,"Cc1n[nH]c(C)c1-c1ccc(NC(=O)[C@@H](NC(=O)c2ccnn2C)[C@@H]2CCc3ccc(C#N)cc32)cc1 [Example 78, N-[(1S)-1-[(1R)-6-cyanoindan-1-yl]-2-[4-(3,5-dimethyl-1H-pyrazol-4-yl)anilino]-2-oxo-ethyl]-2-methyl-pyrazole-3-carboxamide]",> 1 µM
7,"Cc1n[nH]c(C)c1-c1ccc(NC(=O)C(NC(=O)c2ccnn2C)C(C)c2ccccc2)cc1 (single isomer, unassigned) [Example 236]",> 1 µM
8,Cc1n[nH]c(C)c1-c1ccc(NC(=O)[C@@H](NC(=O)c2ccnn2C)C(C)CC(C)(C)C)cc1 (mixture of isomers) [Example 196],< 0.1 µM
9,"Cc1n[nH]c(C)c1-c1ccc(NC(=O)[C@@H](NC(=O)c2ccnn2C(C)CO)[C@@H]2CC(C)(C)CCC2(F)F)cc1 (single isomer, unassigned) [Example 211]",< 0.1 µM
10,"Cc1n[nH]c(C)c1-c1ccc(NC(=O)[C@H](CC2CC2)NC(=O)c2ccnn2C)cc1 [Example 243, N-[(1S)-1-(cyclopropylmethyl)-2-[4-(3,5-dimethyl-1H-pyrazol-4-yl)anilino]-2-oxo-ethyl]-2-methyl-pyrazole-3-carboxamide]",> 1 µM
11,"Cc1n[nH]c(C)c1-c1ccc(NC(=O)[C@@H](NC(=O)c2ccnn2C)C2C(C)(C)C2(C)C)cc1 [Example 245, N-[(1S)-2-[4-(3,5-dimethyl-1H-pyrazol-4-yl)anilino]-2-oxo-1-(2,2,3,3-tetramethylcyclopropyl)ethyl]-2-methyl-pyrazole-3-carboxamide]",0.1 to 1 µM
12,"Cn1cncc1-c1ccc(NC(=O)[C@@H](NC(=O)c2ccnn2C)[C@@H]2CCCc3ccc(Br)cc32)cc1 [Example 344, N-[(1S)-1-[(1R)-7-bromotetralin-1-yl]-2-[4-(3-methylimidazol-4-yl)anilino]-2-oxo-ethyl]-2-methyl-pyrazole-3-carboxamide]",> 1 µM
13,"Cn1cncc1-c1ccc(NC(=O)[C@@H](NC(=O)c2ccnn2C)[C@@H]2CCc3ccc(Br)cc32)cc1 [Example 340, N-[(1S)-1-[(1R)-6-bromoindan-1-yl]-2-[4-(3-methylimidazol-4-yl)anilino]-2-oxo-ethyl]-2-methyl-pyrazole-3-carboxamide]",> 1 µM
14,"CC(C)n1nccc1C(=O)N[C@H](C(=O)Nc1ccc(-c2nncn2C)cc1)C1CCCCC1 [Example 351, N-[(1S)-1-cyclohexyl-2-[4-(4-methyl-1,2,4-triazol-3-yl)anilino]-2-oxo-ethyl]-2-isopropyl-pyrazole-3-carboxamide]",0.1 to 1 µM
15,"Cn1cncc1-c1ccc(NC(=O)[C@@H](NC(=O)OC(C)(C)C)C(c2ccccc2)c2ccccc2)cc1 [Example 101, tert-butyl N-[(1S)-1-benzhydryl-2-[4-(3-methylimidazol-4-yl)anilino]-2-oxo-ethyl]carbamate]",> 1 µM
16,"COc1n[nH]c(C)c1-c1ccc(NC(=O)[C@@H](NC(=O)c2ccnn2C)C2CCCCC2)cc1 [Example 358, N-[(1S)-1-cyclohexyl-2-[4-(5-methoxy-3-methyl-1H-pyrazol-4-yl)anilino]-2-oxo-ethyl]-2-methyl-pyrazole-3-carboxamide]",> 1 µM
